Reference: patent US20210115104A1, “AMYLIN ANALOGUES” (Zealand Pharma A/S, priority 2015, published 2021)
*1 amine or outer side, *2 acyl side, *3 side chain or, on linkers, in order; H or OH if unused. Where a SMILES comes first, the peptide text is derived from it. Bridges are numbered along the chain shown (N, C = ends). [ ]: non-standard residue; d: D form. The star is where a group is joined. C20 diacid = O=C(O)CCCCCCCCCCCCCCCCCCC(=O)*; γGlu = O=C(O)[C@H](CCC(=O)[*:2])N[*:1]; Hyp = O=C(O)[C@@H]1C[C@@H](O)CN1; NMeI = CC[C@H](C)[C@H](NC)C(=O)O; Sar = CNCC(=O)O

Key:
[1] = Assessment of chemical stability (RP-HPLC normalized purity); type: physicochemical; settings: 7 days, 40° C., Table 1; for Normalized purity after 7 days, 40° C., pH 4: pH 4, 0.2 mg/ml; for Normalized purity after 7 days, 40° C., pH 6: pH 6, 0.2 mg/ml; for Normalized purity after 7 days, 40° C., pH 7.5: pH 7.5, 0.2 mg/ml; for Normalized purity after 7 days, 40° C., pH 9: pH 9, 0.2 mg/ml
Method in brief: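 Peptides at 0.2 mg/ml in water adjusted to pH 4, 6, 7.5 or 9, incubated at 40° C for 7 days. Main-peak area-% by RP-HPLC (C8 ammonium formate or C18 TFA gradient, UV 220 nm), normalized to T=0 as 100.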

[2] = molecular target: T1, human calcitonin receptor (hCTR2) (Homo sapiens, UniProt P30988); assay: hCTR2 cAMP assay (AlphaScreen) in COS7 cells; type: cell-based; settings: cAMP induction, COS7 cells expressing hCTR2; Table 1; read-out: hCTR2 EC50
T1 construct: expressed in transfected cells
T1 sequence (P30988 25-474): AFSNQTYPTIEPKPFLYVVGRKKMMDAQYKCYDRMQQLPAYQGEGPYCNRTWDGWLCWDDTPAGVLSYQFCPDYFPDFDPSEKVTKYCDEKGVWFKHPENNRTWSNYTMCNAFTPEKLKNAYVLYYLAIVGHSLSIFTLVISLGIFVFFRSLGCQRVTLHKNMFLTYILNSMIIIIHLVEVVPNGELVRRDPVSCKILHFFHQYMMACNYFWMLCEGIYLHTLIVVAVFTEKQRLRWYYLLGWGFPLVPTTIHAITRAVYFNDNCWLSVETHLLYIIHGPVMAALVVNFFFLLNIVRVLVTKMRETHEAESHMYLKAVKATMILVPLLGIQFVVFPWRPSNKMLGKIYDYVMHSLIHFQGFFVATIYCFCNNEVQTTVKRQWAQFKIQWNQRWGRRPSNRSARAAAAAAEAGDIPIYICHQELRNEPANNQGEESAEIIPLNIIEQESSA
Method in brief: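 Stable hCTR2 clone in RAMP-naïve COS7 cells stimulated 15 min at 37 °C with increasing peptide concentrations in Tyrode buffer pH 7.4 containing IBMX and 0.1% casein. cAMP in lysates measured by AlphaScreen; EC50 from 4-parameter logistic fit.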

[3] = Assessment of physical stability (Thioflavin T fibrillation); type: physicochemical; design: key: FND = fibrillation not detected; FD = fibrillation detected; settings: 1 mg/ml, 40° C., ThT; for Fibrillation pH 4.0 (Ac): 50 mM acetate buffer pH 4.0, 96 hours; for Fibrillation pH 7.0 (His): 50 mM histidine buffer pH 7.0, 96 hours; for Fibrillation pH 7.0 (Phos.): 50 mM phosphate buffer pH 7.0, 96 hours
Method in brief: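 1 mg/ml peptide with 40 μM ThT in 50 mM phosphate pH 7.0, 50 mM histidine pH 7.0 or 50 mM acetate pH 4.0, in triplicate. Fluorescence read every 10 min after 300 s agitation over 96 h at 40 °C. Lag-time (h) is the intersection of linear fits to stable and growth phases.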

Row | Normalized purity after 7 days, 40° C., pH 4 [1] | Normalized purity after 7 days, 40° C., pH 6 [1] | Normalized purity after 7 days, 40° C., pH 7.5 [1] | Normalized purity after 7 days, 40° C., pH 9 [1] | EC50 [2] | Fibrillation pH 4.0 (Ac) [3] | Fibrillation pH 7.0 (His) [3] | Fibrillation pH 7.0 (Phos.) [3] | SMILES
1 | A (A = >90%) | A (A = >90%) | B (B = 70-90%) | B (B = 70-90%) | 0.05 nM | FND | FD | FND | CC[C@H](C)[C@@H](C(=O)N[C@@H](CC(C)C)C(=O)N[C@@H](CO)C(=O)N[C@@H](CO)C(=O)N[C@H](C(=O)N[C@@H](CCC(=O)O)C(=O)N[C@H](C(=O)NCC(=O)N[C@@H](CO)C(=O)N[C@@H](CC(N)=O)C(=O)N[C@H](C(=O)N1C[C@H](O)C[C@H]1C(N)=O)[C@@H](C)O)C(C)C)[C@@H](C)O)N(C)C(=O)[C@H](C)NC(=O)CN(C)C(=O)[C@H](Cc1ccccc1)NC(=O)[C@H](CO)NC(=O)[C@H](CO)NC(=O)[C@H](CCCNC(=N)N)NC(=O)[C@H](CCC(N)=O)NC(=O)[C@H](CC(C)C)NC(=O)[C@H](Cc1ccccc1)NC(=O)[C@H](Cc1c[nH]cn1)NC(=O)[C@H](C)NC(=O)[C@H](CC(C)C)NC(=O)[C@H](CCCNC(=N)N)NC(=O)[C@H](CCC(N)=O)NC(=O)[C@@H](NC(=O)[C@H](C)NC(=O)[C@@H]1CSSC[C@H](NC(=O)[C@H](CCCNC(=N)N)NC(=O)CC[C@H](NC(=O)CCCCCCCCCCCCCCCCCCC(=O)O)C(=O)O)C(=O)N[C@@H](CC(N)=O)C(=O)N[C@@H]([C@@H](C)O)C(=O)N[C@@H](C)C(=O)N[C@@H]([C@@H](C)O)C(=O)N1)[C@@H](C)O [Compound 58, [19CD]-isoGlu-R-C( )-NTAT-C( )-ATQRLAHFLQRSSF-Gly(Me)-A-Ile(Me)-LSSTEVGSNT-Hyp-NH2] ({C20 diacid-γGlu}-RCNTATCATQRLAHFLQRSSF[Sar]A[NMeI]LSSTEVGSNT[Hyp]-NH2; disulfide 2-7)
2 | A (A = >90%) | A (A = >90%) | B (B = 70-90%) | B (B = 70-90%) | 0.16 nM | FND | FND | FND | CC[C@H](C)[C@@H](C(=O)N[C@@H](CC(C)C)C(=O)N[C@@H](CO)C(=O)N[C@@H](CO)C(=O)N[C@H](C(=O)N[C@@H](CCC(=O)O)C(=O)N[C@H](C(=O)NCC(=O)N[C@@H](CO)C(=O)N[C@@H](CC(N)=O)C(=O)N[C@H](C(=O)N1C[C@H](O)C[C@H]1C(N)=O)[C@@H](C)O)C(C)C)[C@@H](C)O)N(C)C(=O)[C@H](C)NC(=O)CN(C)C(=O)[C@H](Cc1ccccc1)NC(=O)[C@H](CCCNC(=N)N)NC(=O)[C@H](CCC(N)=O)NC(=O)[C@H](CC(C)C)NC(=O)[C@H](Cc1ccccc1)NC(=O)[C@H](Cc1c[nH]cn1)NC(=O)[C@H](C)NC(=O)[C@H](CC(C)C)NC(=O)[C@H](CCCNC(=N)N)NC(=O)[C@H](CCC(=O)O)NC(=O)[C@@H](NC(=O)[C@H](C)NC(=O)[C@@H]1CSSC[C@H](NC(=O)[C@H](CCCNC(=N)N)NC(=O)CC[C@H](NC(=O)CCCCCCCCCCCCCCCCCCC(=O)O)C(=O)O)C(=O)NCC(=O)N[C@@H]([C@@H](C)O)C(=O)N[C@@H](C)C(=O)N[C@@H]([C@@H](C)O)C(=O)N1)[C@@H](C)O [Compound 77, [19CD]-isoGlu-R-C( )-GTAT-C( )-ATERLAHFLQRF-Gly(Me)-A-Ile(Me)-LSSTEVGSNT-Hyp-NH2] ({C20 diacid-γGlu}-RCGTATCATERLAHFLQRF[Sar]A[NMeI]LSSTEVGSNT[Hyp]-NH2; disulfide 2-7)
3 | A (A = >90%) | A (A = >90%) | A (A = >90%) | A (A = >90%) | 0.06 nM | FND | FND | FND | CC[C@H](C)[C@@H](C(=O)N[C@@H](CC(C)C)C(=O)N[C@@H](CO)C(=O)N[C@@H](CO)C(=O)N[C@H](C(=O)N[C@@H](CCC(=O)O)C(=O)N[C@H](C(=O)NCC(=O)N[C@@H](CO)C(=O)N[C@@H](CC(N)=O)C(=O)N[C@H](C(=O)N1C[C@H](O)C[C@H]1C(N)=O)[C@@H](C)O)C(C)C)[C@@H](C)O)N(C)C(=O)[C@H](C)NC(=O)CN(C)C(=O)[C@H](Cc1ccccc1)NC(=O)[C@H](CO)NC(=O)[C@H](CO)NC(=O)[C@H](CCCNC(=N)N)NC(=O)[C@H](CCC(N)=O)NC(=O)[C@H](CC(C)C)NC(=O)[C@H](Cc1ccccc1)NC(=O)[C@H](Cc1c[nH]cn1)NC(=O)[C@H](C)NC(=O)[C@H](CC(C)C)NC(=O)[C@H](CCCNC(=N)N)NC(=O)[C@H](CC(=O)O)NC(=O)[C@@H](NC(=O)[C@H](C)NC(=O)[C@@H]1CSSC[C@H](NC(=O)[C@H](CCCNC(=N)N)NC(=O)CC[C@H](NC(=O)CCCCCCCCCCCCCCCCCCC(=O)O)C(=O)O)C(=O)N[C@@H](CCC(N)=O)C(=O)N[C@@H]([C@@H](C)O)C(=O)N[C@@H](C)C(=O)N[C@@H]([C@@H](C)O)C(=O)N1)[C@@H](C)O [Compound 88, [19CD]-isoGlu-R-C( )-QTAT-C( )-ATDRLAHFLQRSSF-Gly(Me)-A-Ile(Me)-LSSTEVGSNT-Hyp-NH2] ({C20 diacid-γGlu}-RCQTATCATDRLAHFLQRSSF[Sar]A[NMeI]LSSTEVGSNT[Hyp]-NH2; disulfide 2-7)
4 | A (A = >90%) | A (A = >90%) | A (A = >90%) | A (A = >90%) | 0.2 nM | FND | FND | FND | CC[C@H](C)[C@@H](C(=O)N[C@@H](CC(C)C)C(=O)N[C@@H](CO)C(=O)N[C@@H](CO)C(=O)N[C@H](C(=O)N[C@@H](CCC(=O)O)C(=O)N[C@H](C(=O)NCC(=O)N[C@@H](CO)C(=O)NCC(=O)N[C@H](C(=O)N1C[C@H](O)C[C@H]1C(N)=O)[C@@H](C)O)C(C)C)[C@@H](C)O)N(C)C(=O)[C@H](C)NC(=O)CN(C)C(=O)[C@H](Cc1ccccc1)NC(=O)[C@H](CO)NC(=O)[C@H](CO)NC(=O)[C@H](CCCNC(=N)N)NC(=O)[C@H](CCC(N)=O)NC(=O)[C@H](CC(C)C)NC(=O)[C@H](Cc1ccccc1)NC(=O)[C@H](Cc1c[nH]cn1)NC(=O)[C@H](C)NC(=O)[C@H](CC(C)C)NC(=O)[C@H](CCCNC(=N)N)NC(=O)[C@H](CCC(=O)O)NC(=O)[C@@H](NC(=O)[C@H](C)NC(=O)[C@@H]1CSSC[C@H](NC(=O)[C@H](CCCNC(=N)N)NC(=O)CC[C@H](NC(=O)CCCCCCCCCCCCCCCCCCC(=O)O)C(=O)O)C(=O)N[C@@H](CCC(N)=O)C(=O)N[C@@H]([C@@H](C)O)C(=O)N[C@@H](C)C(=O)N[C@@H]([C@@H](C)O)C(=O)N1)[C@@H](C)O [Compound 90, [19CD]-isoGlu-R-C( )-QTAT-C( )-ATERLAHFLQRSSF-Gly(Me)-A-Ile(Me)-LSSTEVGSGT-Hyp-NH2] ({C20 diacid-γGlu}-RCQTATCATERLAHFLQRSSF[Sar]A[NMeI]LSSTEVGSGT[Hyp]-NH2; disulfide 2-7)
